What is called IC50 is the midpoint of a concentration-inhibition curve.

Where only a bound is given, the exact number is not on record here.

This is an account of results in patent publication US20240116985A1, “STAPLED PEPTIDES AND METHODS THEREOF” (priority 2020, published 2024).

Assay [1] concerns the target T1, beta-catenin/TCF4 engagement (Homo sapiens, UniProt P35222).
T1 construct: expressed in transfected cells; host or cells: HEK293
T1 sequence (P35222 1-781): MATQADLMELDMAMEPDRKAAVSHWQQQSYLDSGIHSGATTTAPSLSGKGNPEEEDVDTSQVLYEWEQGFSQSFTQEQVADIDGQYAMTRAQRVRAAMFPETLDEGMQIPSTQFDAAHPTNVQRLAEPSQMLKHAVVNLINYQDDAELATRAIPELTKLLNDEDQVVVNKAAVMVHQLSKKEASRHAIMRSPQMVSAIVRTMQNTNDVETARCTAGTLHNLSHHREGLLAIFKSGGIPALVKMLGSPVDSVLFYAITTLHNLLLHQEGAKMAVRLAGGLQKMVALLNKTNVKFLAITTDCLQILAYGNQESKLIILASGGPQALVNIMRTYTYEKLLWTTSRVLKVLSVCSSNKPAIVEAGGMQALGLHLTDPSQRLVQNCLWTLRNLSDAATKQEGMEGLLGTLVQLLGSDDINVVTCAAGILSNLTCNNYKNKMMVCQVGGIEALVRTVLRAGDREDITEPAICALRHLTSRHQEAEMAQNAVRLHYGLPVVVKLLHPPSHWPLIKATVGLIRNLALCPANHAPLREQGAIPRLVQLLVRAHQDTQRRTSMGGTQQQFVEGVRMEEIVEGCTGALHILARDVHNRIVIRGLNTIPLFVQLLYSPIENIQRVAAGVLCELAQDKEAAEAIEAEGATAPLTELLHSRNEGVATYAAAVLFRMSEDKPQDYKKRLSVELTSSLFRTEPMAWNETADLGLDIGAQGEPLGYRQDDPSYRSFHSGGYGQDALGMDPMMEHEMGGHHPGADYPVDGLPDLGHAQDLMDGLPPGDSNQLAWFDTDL
The assay can be described thus: Nano-BRET target engagement assay (B-cat-Halo & TCF4-Luc in HEK293 cells). Type of assay: cell-based. The conditions noted are these: read-out: NanoBRET Abs IC50. In general terms: Bioluminescence resonance energy transfer reports proximity on the nanometre scale.

For assay [2], the target named is T2, full-length beta-Catenin (Uniprot ID P35222) (Homo sapiens, UniProt P35222).
T2 construct: 10 nM full-length beta-Catenin (Uniprot ID P35222)
T2 sequence (P35222 1-781): T1 sequence (P35222 1-781)
The experiment in a line: Fluorescence polarization IC50 (beta-catenin / 5FAM-TCF4 10-53 competition). The conditions noted are these: fluorescence polarization; read-out: beta-Catenin FP IC50. Type of assay: binding. For orientation: Fluorescence polarisation rises when a labelled molecule tumbles more slowly, as on binding a larger partner.

Regarding `CC(=O)N1CCC[C@]12CC=CC[C@@](C)(C(=O)N[C@@H](CC(=O)O)C(=O)N[C@@H](CC(=O)O)C(=O)N[C@@H](C)C(=O)N[C@@H](C)C(=O)N[C@@H](Cc1ccccc1)C(=O)N[C@@H](CC(C)C)C(=O)NC(C)(C)C(=O)N[C@@H](Cc1ccsc1)C(=O)N[C@@H](Cc1csc3ccccc13)C(=O)N[C@@H](CCC(N)=O)C(N)=O)NC(=O)[C@H](CC(C)(C)C)NC(=O)[C@H](CC(=O)O)NC2=O` [I-1980, Ac-PL3-Asp-Npg-S3-Asp-Asp-Ala-Ala-Phe-Leu-Aib-3Thi-BztA-Gln-NH2], the IC50 in assay [1] was above 20000 nM; in assay [2], 236 nM.

With `CC(=O)N1CCC[C@]12CCCC[C@@](C)(C(=O)N[C@@H](CC(=O)O)C(=O)N[C@@H](CC(=O)O)C(=O)N[C@@H](C)C(=O)N[C@@H](C)C(=O)N[C@@H](Cc1ccccc1)C(=O)N[C@@H](CC(C)C)C(=O)NC(C)(C)C(=O)N[C@@H](Cc1ccsc1)C(=O)N[C@@H](Cc1csc3ccccc13)C(=O)N[C@@H](CCC(N)=O)C(N)=O)NC(=O)[C@H](CC(C)(C)C)NC(=O)[C@H](CC(=O)O)NC2=O` [I-1983, Ac-PL3-Asp-Npg-S3-Asp-Asp-Ala-Ala-Phe-Leu-Aib-3Thi-BztA-Gln-NH2], the figures for the IC50 in assay [1] and in assay [2] were above 20000 nM and 186 nM, respectively.

In the case of `CC(=O)N1CCC[C@]12CC=CCCCC1(CCCC=CCCCOC(=O)N3CC[C@@](C(=O)N[C@@H](Cc4ccccc4Cl)C(=O)N[C@@H](Cc4csc5ccccc45)C(=O)N[C@@H](C)C(N)=O)(C3)NC(=O)[C@H](C)NC(=O)[C@H](Cc3ccccc3)NC(=O)[C@H](C)NC(=O)[C@H](C)NC(=O)[C@H](Cc3cccc(C(=O)O)c3)NC(=O)[C@H](CC(=O)O)NC1=O)NC(=O)[C@H](CC(C)(C)C)NC(=O)[C@H](CC(=O)O)NC2=O` (stereo partly drawn) [I-2023, Ac-PL3-Asp-Npg-B5-Asp-3COOHF-Ala-Ala-Phe-Ala-PyrS2-2C1F-BztA-Ala-NH2], the IC50 in assay [1] worked out at 7800 nM; in assay [2], 32 nM.

Regarding `CC(=O)N1CCC[C@]12CC=CCCCC1(CCCC=CCCCOC(=O)N3CC[C@@](C(=O)N[C@@H](Cc4ccccc4Cl)C(=O)N[C@@H](Cc4csc5ccccc45)C(=O)N[C@H](C(N)=O)C(C)C)(C3)NC(=O)[C@H](C)NC(=O)[C@H](Cc3ccccc3)NC(=O)[C@H](C)NC(=O)[C@H](C)NC(=O)[C@H](Cc3cccc(C(=O)O)c3)NC(=O)[C@H](CC(=O)O)NC1=O)NC(=O)[C@H](CC(C)(C)C)NC(=O)[C@H](CC(=O)O)NC2=O` (stereo partly drawn) [I-2024, Ac-PL3-Asp-Npg-B5-Asp-3COOHF-Ala-Ala-Phe-Ala-PyrS2-2C1F-BztA-Val-NH2], the IC50 in assay [1] came out at 17900 nM; in assay [2], 78 nM.

On to `CC(=O)N1CCC[C@]12CC=CCCCC1(CCCC=CCCCOC(=O)N3CC[C@@](C(=O)N[C@@H](Cc4ccccc4Cl)C(=O)N[C@@H](Cc4csc5ccccc45)C(=O)N[C@H](C)C(N)=O)(C3)NC(=O)[C@H](C)NC(=O)[C@H](Cc3ccccc3)NC(=O)[C@H](C)NC(=O)[C@H](C)NC(=O)[C@H](Cc3cccc(C(=O)O)c3)NC(=O)[C@H](CC(=O)O)NC1=O)NC(=O)[C@H](CC(C)(C)C)NC(=O)[C@H](CC(=O)O)NC2=O` (stereo partly drawn) [I-2026, Ac-PL3-Asp-Npg-B5-Asp-3COOHF-Ala-Ala-Phe-Ala-PyrS2-2C1F-BztA-dAla-NH2], for which the IC50 came out at 9700 nM in assay [1] and 26 nM in assay [2].

As for `CC(=O)N1CCC[C@]12CC=CCCCC1(CCCC=CCCCOC(=O)N3CC[C@@](C(=O)N[C@@H](Cc4ccccc4Cl)C(=O)N[C@@H](Cc4csc5ccccc45)C(=O)N[C@@H](C)C(N)=O)(C3)NC(=O)[C@H](CO)NC(=O)[C@H](Cc3ccccc3)NC(=O)[C@H](C)NC(=O)[C@H](C)NC(=O)[C@H](Cc3cccc(C(=O)O)c3)NC(=O)[C@H](CC(=O)O)NC1=O)NC(=O)[C@H](CC(C)(C)C)NC(=O)[C@H](CC(=O)O)NC2=O` (stereo partly drawn) [I-2027, Ac-PL3-Asp-Npg-B5-Asp-3COOHF-Ala-Ala-Phe-Ser-PyrS2-2C1F-BztA-Ala-NH2], the IC50 in assay [1] amounted to 4100 nM; in assay [2], 13 nM.

For `CC(=O)N1CCC[C@]12CC=CCCCC1(CCCC=CCCCOC(=O)N3CC[C@@](C(=O)N[C@@H](Cc4ccccc4Cl)C(=O)N[C@@H](Cc4csc5ccccc45)C(=O)N[C@H](C(N)=O)C(C)C)(C3)NC(=O)[C@H](CO)NC(=O)[C@H](Cc3ccccc3)NC(=O)[C@H](C)NC(=O)[C@H](C)NC(=O)[C@H](Cc3cccc(C(=O)O)c3)NC(=O)[C@H](CC(=O)O)NC1=O)NC(=O)[C@H](CC(C)(C)C)NC(=O)[C@H](CC(=O)O)NC2=O` (stereo partly drawn) [I-2028, Ac-PL3-Asp-Npg-B5-Asp-3COOHF-Ala-Ala-Phe-Ser-PyrS2-2C1F-BztA-Val-NH2], the IC50 was found to be 17600 nM in assay [1] and 32 nM in assay [2].

For the compound `CC(=O)N1CCC[C@]12CC=CCCCC1(CCCC=CCCCOC(=O)N3CC[C@@](C(=O)N[C@@H](Cc4ccccc4Cl)C(=O)N[C@@H](Cc4csc5ccccc45)C(=O)N[C@@H](Cc4ccccc4)C(N)=O)(C3)NC(=O)[C@H](CO)NC(=O)[C@H](Cc3ccccc3)NC(=O)[C@H](C)NC(=O)[C@H](C)NC(=O)[C@H](Cc3cccc(C(=O)O)c3)NC(=O)[C@H](CC(=O)O)NC1=O)NC(=O)[C@H](CC(C)(C)C)NC(=O)[C@H](CC(=O)O)NC2=O` (stereo partly drawn) [I-2029, Ac-PL3-Asp-Npg-B5-Asp-3COOHF-Ala-Ala-Phe-Ser-PyrS2-2C1F-BztA-Phe-NH2], the IC50 in assay [1] worked out at 26200 nM; in assay [2], 35 nM.

As to `CC(=O)N1CCC[C@]12CC=CCCCC1(CCCC=CCCCOC(=O)N3CC[C@@](C(=O)N[C@@H](Cc4ccccc4Cl)C(=O)N[C@@H](Cc4csc5ccccc45)C(=O)N[C@H](C)C(N)=O)(C3)NC(=O)[C@H](CO)NC(=O)[C@H](Cc3ccccc3)NC(=O)[C@H](C)NC(=O)[C@H](C)NC(=O)[C@H](Cc3cccc(C(=O)O)c3)NC(=O)[C@H](CC(=O)O)NC1=O)NC(=O)[C@H](CC(C)(C)C)NC(=O)[C@H](CC(=O)O)NC2=O` (stereo partly drawn) [I-2030, Ac-PL3-Asp-Npg-B5-Asp-3COOHF-Ala-Ala-Phe-Ser-PyrS2-2C1F-BztA-dAla-NH2], the IC50 in assay [1] is 3900 nM; in assay [2], 22 nM.

In the case of `CC(=O)N1CCC[C@]12CC=CCCCC1(CCCC=CCCCOC(=O)N3CC[C@@](C(=O)N[C@@H](Cc4ccccc4Cl)C(=O)N[C@@H](Cc4csc5ccccc45)C(=O)N[C@@H](C)C(N)=O)(C3)NC(=O)[C@H](CC(N)=O)NC(=O)[C@H](Cc3ccccc3)NC(=O)[C@H](C)NC(=O)[C@H](C)NC(=O)[C@H](Cc3cccc(C(=O)O)c3)NC(=O)[C@H](CC(=O)O)NC1=O)NC(=O)[C@H](CC(C)(C)C)NC(=O)[C@H](CC(=O)O)NC2=O` (stereo partly drawn) [I-2031, Ac-PL3-Asp-Npg-B5-Asp-3COOHF-Ala-Ala-Phe-Asn-PyrS2-2C1F-BztA-Ala-NH2], the IC50 is 4700 nM in assay [1] and 11 nM in assay [2].

For the compound `CC(=O)N1CCC[C@]12CC=CCCCC1(CCCC=CCCCOC(=O)N3CC[C@@](C(=O)N[C@@H](Cc4ccccc4Cl)C(=O)N[C@@H](Cc4csc5ccccc45)C(=O)N[C@H](C(N)=O)C(C)C)(C3)NC(=O)[C@H](CC(N)=O)NC(=O)[C@H](Cc3ccccc3)NC(=O)[C@H](C)NC(=O)[C@H](C)NC(=O)[C@H](Cc3cccc(C(=O)O)c3)NC(=O)[C@H](CC(=O)O)NC1=O)NC(=O)[C@H](CC(C)(C)C)NC(=O)[C@H](CC(=O)O)NC2=O` (stereo partly drawn) [I-2032, Ac-PL3-Asp-Npg-B5-Asp-3COOHF-Ala-Ala-Phe-Asn-PyrS2-2C1F-BztA-Val-NH2], the IC50 in assay [1] came out at 20900 nM; in assay [2], 16 nM.

`CC(=O)N1CCC[C@]12CC=CCCCC1(CCCC=CCCCOC(=O)N3CC[C@@](C(=O)N[C@@H](Cc4ccccc4Cl)C(=O)N[C@@H](Cc4csc5ccccc45)C(=O)N[C@@H](Cc4ccccc4)C(N)=O)(C3)NC(=O)[C@H](CC(N)=O)NC(=O)[C@H](Cc3ccccc3)NC(=O)[C@H](C)NC(=O)[C@H](C)NC(=O)[C@H](Cc3cccc(C(=O)O)c3)NC(=O)[C@H](CC(=O)O)NC1=O)NC(=O)[C@H](CC(C)(C)C)NC(=O)[C@H](CC(=O)O)NC2=O` (stereo partly drawn) [I-2033, Ac-PL3-Asp-Npg-B5-Asp-3COOHF-Ala-Ala-Phe-Asn-PyrS2-2C1F-BztA-Phe-NH2]: the IC50 in assay [1] came out at 9500 nM; in assay [2], 30 nM.

`CC(=O)N1CCC[C@]12CC=CCCCC1(CCCC=CCCCOC(=O)N3CC[C@@](C(=O)N[C@@H](Cc4ccccc4Cl)C(=O)N[C@@H](Cc4csc5ccccc45)C(=O)N[C@@H](CC(N)=O)C(N)=O)(C3)NC(=O)[C@H](C)NC(=O)[C@H](Cc3ccccc3)NC(=O)[C@H](C)NC(=O)[C@H](C)NC(=O)[C@H](Cc3cccc(C(=O)O)c3)NC(=O)[C@H](CC(=O)O)NC1=O)NC(=O)[C@H](CC(C)(C)C)NC(=O)[C@H](CC(=O)O)NC2=O` (stereo partly drawn) [I-2035, Ac-PL3-Asp-Npg-B5-Asp-3COOHF-Ala-Ala-Phe-Ala-PyrS2-2C1F-BztA-Asn-NH2]: the IC50 in assay [1] worked out at 14500 nM; in assay [2] it was 16 nM.
